According to ChEMBL document CHEMBL1201862, “PubChem BioAssay data set” (2004):
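These data come from cells grown in 96-well plates and exposed to compound for 48 hours at five concentrations. GI50 is the concentration that inhibits growth by half.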 The source made the active and inactive calls. Rule as the data show it: active = GI50 up to about 1.1 µM and inactive = higher.

Columns and labels:
Test in all cases: inhibition of tumour cell growth, NCI panel, 48 h
ACHN = test system: ACHN
CAKI-1 = test system: CAKI-1
DU-145 = test system: DU-145
EKVX = test system: EKVX
HOP-92 = test system: HOP-92
Hs-578T = test system: Hs-578T
MDA-MB-231 = test system: MDA-MB-231
MDA-MB-435 = test system: MDA-MB-435
SK-MEL-28 = test system: SK-MEL-28
SK-MEL-5 = test system: SK-MEL-5
SR = test system: SR
SW-620 = test system: SW-620
TK-10 = test system: TK-10
BT-549 = test system: BT-549
Malme-3M = test system: Malme-3M
DLD-1 = test system: DLD-1
DMS-114 = test system: DMS-114
DMS-273 = test system: DMS-273
KM-20L2 = test system: KM-20L2
SNB-78 = test system: SNB-78

| SMILES | GI50 (ACHN) | GI50 (CAKI-1) | GI50 (DU-145) | GI50 (EKVX) | GI50 (HOP-92) | GI50 (Hs-578T) | GI50 (MDA-MB-231) | GI50 (MDA-MB-435) | GI50 (SK-MEL-28) | GI50 (SK-MEL-5) | GI50 (SR) | GI50 (SW-620) | GI50 (TK-10) | GI50 (BT-549) | GI50 (Malme-3M) | GI50 (DLD-1) | GI50 (DMS-114) | GI50 (DMS-273) | GI50 (KM-20L2) | GI50 (SNB-78) |
| --- | --- | --- | --- | --- | --- | --- | --- | --- | --- | --- | --- | --- | --- | --- | --- | --- | --- | --- | --- | --- |
| CCOC(=O)/C(=N/Nc1ccc(Cl)cc1)N1C(=S)N(C)N=C(C)C=C1S | > 100 µM (inactive) | 54.5 µM (inactive) | > 100 µM (inactive) | 24.3 µM (inactive) | 50.7 µM (inactive) | 37.1 µM (inactive) | 29 µM (inactive) | > 100 µM (inactive) | > 100 µM (inactive) | > 100 µM (inactive) | > 100 µM (inactive) | > 100 µM (inactive) | 30.5 µM (inactive) | – | – | – | – | – | – | – |
| Cc1sc(N)c(S(=O)(=O)c2ccccc2)c1C | > 100 µM (inactive) | > 100 µM (inactive) | > 100 µM (inactive) | > 100 µM (inactive) | > 100 µM (inactive) | > 100 µM (inactive) | > 100 µM (inactive) | > 100 µM (inactive) | > 100 µM (inactive) | > 100 µM (inactive) | > 100 µM (inactive) | > 100 µM (inactive) | > 100 µM (inactive) | > 100 µM (inactive) | > 100 µM (inactive) | – | – | – | – | – |
| CN(C)CCCCN1CCc2c(n(C)c3ccccc23)C1=O | 72.1 µM (inactive) | 29.6 µM (inactive) | – | 36 µM (inactive) | 42.6 µM (inactive) | 33 µM (inactive) | 29.5 µM (inactive) | 18.5 µM (inactive) | 16.7 µM (inactive) | 17.7 µM (inactive) | – | 27.4 µM (inactive) | – | 45.4 µM (inactive) | 19.2 µM (inactive) | – | – | – | – | – |
| COc1ccc2c(c1)/C(=C/CCN(C)C)c1ccccc1S2 | > 100 µM (inactive) | – | > 100 µM (inactive) | – | > 100 µM (inactive) | 33.4 µM (inactive) | 59 µM (inactive) | 48 µM (inactive) | 19.4 µM (inactive) | 16.2 µM (inactive) | 69 µM (inactive) | > 100 µM (inactive) | > 100 µM (inactive) | – | – | – | – | – | – | – |
| CCCC(=O)Nc1cc(/C=C/C(=O)N2CC(CCl)c3c2cc(OCc2ccccc2)c2[nH]cc(C)c32)n(C)c1 (configuration not stated) | 0.013 µM (active) | 0.0295 µM (active) | 0.0194 µM (active) | 0.136 µM (active) | 0.0698 µM (active) | 0.14 µM (active) | 0.247 µM (active) | 0.251 µM (active) | 0.215 µM (active) | 0.02 µM (active) | 0.00444 µM (active) | 0.0597 µM (active) | 0.533 µM (active) | 0.159 µM (active) | 0.0916 µM (active) | – | – | – | – | – |
| COC1=CC(=O)c2ccccc2C1(C)C1=NC(C)(C)CO1 (configuration not stated) | > 100 µM (inactive) | > 100 µM (inactive) | – | > 100 µM (inactive) | > 100 µM (inactive) | – | – | – | > 100 µM (inactive) | > 100 µM (inactive) | > 100 µM (inactive) | > 100 µM (inactive) | > 100 µM (inactive) | – | > 100 µM (inactive) | > 100 µM (inactive) | > 100 µM (inactive) | > 100 µM (inactive) | > 100 µM (inactive) | – |
| COc1ccc2cc(/C=N/NC(=O)Nc3ccccc3)ccc2c1 | – | > 100 µM (inactive) | > 100 µM (inactive) | – | > 100 µM (inactive) | > 100 µM (inactive) | 81.3 µM (inactive) | > 100 µM (inactive) | > 10 µM (inactive) | > 100 µM (inactive) | > 100 µM (inactive) | > 100 µM (inactive) | > 100 µM (inactive) | > 100 µM (inactive) | > 100 µM (inactive) | – | – | – | – | – |
| Cc1ccc(S(=O)(=O)N/N=C/c2c(O)ccc3ccccc23)cc1 | 23.9 µM (inactive) | 17.9 µM (inactive) | 29 µM (inactive) | 32.1 µM (inactive) | – | 17.5 µM (inactive) | 21.9 µM (inactive) | 23.7 µM (inactive) | 35.5 µM (inactive) | 31.8 µM (inactive) | – | 30.3 µM (inactive) | 45.8 µM (inactive) | 23.8 µM (inactive) | 24.3 µM (inactive) | – | – | – | – | – |
| Cc1ccc(-c2c(C#N)c(-c3ccc([N+](=O)[O-])cc3)c(C#N)c(=O)n2NS(=O)(=O)c2ccccc2)cc1 | 39.2 µM (inactive) | 97.3 µM (inactive) | – | 40.5 µM (inactive) | 13.3 µM (inactive) | 0.589 µM (active) | 38.7 µM (inactive) | 54.5 µM (inactive) | 36.3 µM (inactive) | 12.1 µM (inactive) | – | 38 µM (inactive) | 41.3 µM (inactive) | 10.4 µM (inactive) | 29.9 µM (inactive) | – | – | – | – | – |
| Cc1ccc2c3c4c(ccc13)C(C)(C)OC4=C(C(C)C)C2=O | 84.5 µM (inactive) | > 100 µM (inactive) | > 100 µM (inactive) | 63.5 µM (inactive) | 19.5 µM (inactive) | 8.36 µM (inactive) | > 100 µM (inactive) | 59.7 µM (inactive) | 91.6 µM (inactive) | 32.2 µM (inactive) | – | > 100 µM (inactive) | 67 µM (inactive) | 26.5 µM (inactive) | 39.3 µM (inactive) | – | – | – | – | – |
| COc1cc(Nc2nc3ccc(C(F)(F)F)cc3nc2C(=O)O)cc(OC)c1OC | 27.4 µM (inactive) | 24.8 µM (inactive) | 28.5 µM (inactive) | 34.9 µM (inactive) | – | 16.9 µM (inactive) | 19.2 µM (inactive) | 24.3 µM (inactive) | 26.8 µM (inactive) | 34.4 µM (inactive) | 34.7 µM (inactive) | 25.7 µM (inactive) | 22.8 µM (inactive) | 19.2 µM (inactive) | 27.1 µM (inactive) | – | – | – | – | – |
| CC1(C)CCc2cc3c(cc2O1)OC(C)(C)CC3=O | 88.9 µM (inactive) | 52.5 µM (inactive) | – | 93.5 µM (inactive) | 17.5 µM (inactive) | – | – | – | – | 21.1 µM (inactive) | 57.5 µM (inactive) | > 100 µM (inactive) | – | – | – | 97.5 µM (inactive) | 40.9 µM (inactive) | 71.3 µM (inactive) | – | – |
| CCCCCCCNC(P(=O)(O)O)P(=O)(O)O | > 100 µM (inactive) | > 100 µM (inactive) | > 100 µM (inactive) | > 100 µM (inactive) | > 100 µM (inactive) | 34 µM (inactive) | > 100 µM (inactive) | > 100 µM (inactive) | > 100 µM (inactive) | 97.3 µM (inactive) | > 100 µM (inactive) | > 100 µM (inactive) | > 100 µM (inactive) | > 100 µM (inactive) | > 100 µM (inactive) | – | – | – | – | – |
| CCCCCC/C(CC(=O)CCC(=O)NCCc1ccccc1)=N\NC(=O)c1ccc2ccccc2c1O | 28.2 µM (inactive) | – | – | 43.2 µM (inactive) | 33 µM (inactive) | – | – | – | 45.9 µM (inactive) | 29.5 µM (inactive) | – | 52.7 µM (inactive) | 64.7 µM (inactive) | – | 42.4 µM (inactive) | 36.9 µM (inactive) | – | – | 35.1 µM (inactive) | 67.3 µM (inactive) |
| [N-]=[N+]=CC(=O)c1ccccc1C#CCCc1ccccc1 | 22.6 µM (inactive) | – | – | 24.5 µM (inactive) | 18.9 µM (inactive) | – | – | – | 48.2 µM (inactive) | 15.7 µM (inactive) | 28.2 µM (inactive) | 32.7 µM (inactive) | 72.8 µM (inactive) | – | 27.4 µM (inactive) | 39.4 µM (inactive) | 5.83 µM (inactive) | 23.2 µM (inactive) | 23.6 µM (inactive) | – |
| O=C(O)c1nc2ccc(C(F)(F)F)cc2[nH]c1=O | > 100 µM (inactive) | > 100 µM (inactive) | > 100 µM (inactive) | > 100 µM (inactive) | > 100 µM (inactive) | > 100 µM (inactive) | > 100 µM (inactive) | > 100 µM (inactive) | > 100 µM (inactive) | > 100 µM (inactive) | > 100 µM (inactive) | > 100 µM (inactive) | > 100 µM (inactive) | > 100 µM (inactive) | > 100 µM (inactive) | – | – | – | – | – |
| COC(=O)c1c(-c2ccccc2)c2sc3ccccc3n2c1N | 50 µM (inactive) | 51.3 µM (inactive) | 57.5 µM (inactive) | 58.3 µM (inactive) | 29.1 µM (inactive) | – | 87.1 µM (inactive) | 81.7 µM (inactive) | 66.1 µM (inactive) | 59 µM (inactive) | 76.2 µM (inactive) | – | 54.3 µM (inactive) | > 100 µM (inactive) | 24.9 µM (inactive) | – | – | – | – | – |
| O=c1cc(N2CCCC2)[nH]c(=O)n1-c1cccc(C(F)(F)F)c1 | > 100 µM (inactive) | > 100 µM (inactive) | > 100 µM (inactive) | > 100 µM (inactive) | > 100 µM (inactive) | > 100 µM (inactive) | > 100 µM (inactive) | > 100 µM (inactive) | – | – | – | > 100 µM (inactive) | > 100 µM (inactive) | > 100 µM (inactive) | > 100 µM (inactive) | – | – | – | – | – |
| CC(C)NC(=O)OCc1c(COC(=O)NC(C)C)c(-c2cc[n+](COC(=O)Cc3ccccc3)cc2)n2c1CCC2 | 40.5 µM (inactive) | 37.8 µM (inactive) | > 100 µM (inactive) | > 100 µM (inactive) | > 100 µM (inactive) | > 100 µM (inactive) | > 100 µM (inactive) | > 100 µM (inactive) | > 100 µM (inactive) | > 100 µM (inactive) | 9.59 µM (inactive) | > 100 µM (inactive) | > 100 µM (inactive) | > 100 µM (inactive) | > 100 µM (inactive) | – | – | – | – | – |
| COc1ccc(/C=N/NC(=O)NCCCN(C)C)cc1 | > 100 µM (inactive) | – | – | – | – | – | – | – | > 100 µM (inactive) | > 100 µM (inactive) | – | > 100 µM (inactive) | > 100 µM (inactive) | – | > 100 µM (inactive) | > 100 µM (inactive) | > 100 µM (inactive) | > 100 µM (inactive) | – | > 100 µM (inactive) |
| Nc1nc(Cl)cc(NCCCCCCCCCCCCNc2cc(Cl)nc(N)n2)n1 | – | – | – | 12.3 µM (inactive) | 2.87 µM (inactive) | – | – | – | 7.67 µM (inactive) | 0.0861 µM (active) | 1.99 µM (inactive) | 28.8 µM (inactive) | 23.6 µM (inactive) | – | 24.4 µM (inactive) | 4.61 µM (inactive) | – | 7.57 µM (inactive) | 49.1 µM (inactive) | – |
